These results are taken from article PMC7722354, “7-Substituted 2-Nitro-5,6-dihydroimidazo[2,1-b][1,3]oxazines: Novel Antitubercular Agents Lead to a New Preclinical Candidate for Visceral Leishmaniasis” (Journal of Medicinal Chemistry, 2017).

Converted amounts (≈) assume the structure as drawn.

Experiment [1] relates to Leishmania donovani. As to the kind of experiment: L. don amastigote mouse macrophage-based luciferase assay (CDRI). Format: cell-based. As to conditions: in mouse macrophages, single test (CDRI).
For experiment [2], the system named is M. tb, strain H37Rv. Nature of the experiment: LORA minimum inhibitory concentration assay (hypoxic). Format: cell-based. As to conditions: Mycobacterium tuberculosis.
In experiment [3] the test system is M. tb, strain H37Rv. Nature of the experiment: MABA minimum inhibitory concentration assay (aerobic). Format: cell-based, Mycobacterium tuberculosis.
The subject of experiment [4] is Trypanosoma cruzi. As to the kind of experiment: T. cruzi growth inhibition on MRC-5 cells (LMPH). Format: cell-based. The conditions noted are these: MRC5.
For experiment [5], the system named is human lung fibroblasts (MRC-5 cells). Nature of the experiment: cytotoxicity toward MRC-5 cells (LMPH). Format: cell-based. As to conditions: MRC5.
For experiment [6], the system named is Leishmania infantum. Nature of the experiment: L. inf growth inhibition in mouse macrophages (LMPH). As to conditions: Macrophage, mean of at least two determinations. Format: cell-based.
Setting [7] is: Mycobacterium tuberculosis, H37RV, read-out: MIC MABA, aerobic.
Where [8] appears, read: Mycobacterium tuberculosis, H37RV, aerobic, read-out: MIC MABA.

In the case of `O=[N+]([O-])c1cn2c(n1)OC(COc1ccc(-c3ccc(F)cc3F)nc1)CC2` (centres unmarked) [compound 91], in experiment [1], the IC50 – broadly, the concentration at which inhibition is half-maximal – was 20 nM. In addition, the MIC (as a rule, the smallest concentration in the dilution series that meets the test's criterion for growth inhibition) in experiment [2] worked out at 8.9 µM (≈ 3.46 µg/mL); in experiment [3] (setting [7]) it was 0.36 µM (≈ 0.14 µg/mL).

As to `O=[N+]([O-])c1cn2c(n1)OC(COc1ccc(-c3ccc(OC(F)(F)F)cc3)nc1)CC2` (centres unmarked) [compound 93], in experiment [1], the half-inhibitory concentration (IC50) turned out to be 50 nM. Further, the minimal inhibitory concentration (MIC) in experiment [2] is 0.86 µM (≈ 0.375 µg/mL); in experiment [3] (setting [7]), 0.02 to 0.04 µM (≈ 0.00873 to 0.0175 µg/mL); in experiment [3] (aerobic, read-out: MIC MABA) it was 0.032 µM (≈ 0.014 µg/mL).

For the compound `O=[N+]([O-])c1cn2c(n1)O[C@@H](COc1ccc(-c3ccc(OC(F)(F)F)cc3)nc1)CC2` [compound 94], the MIC in experiment [2] is 1.5 µM (≈ 0.655 µg/mL); in experiment [3] (setting [7]), 0.02 to 0.04 µM (≈ 0.00873 to 0.0175 µg/mL); in experiment [3] (aerobic, read-out: MIC MABA), 0.024 µM (≈ 0.0105 µg/mL).

`O=[N+]([O-])c1cn2c(n1)O[C@H](COc1ccc(-c3ccc(OC(F)(F)F)cc3)nc1)CC2` [compound 95]: the values for the MIC in experiment [2] and in experiment [3] (setting [7]) were 1.6 µM (≈ 0.698 µg/mL) and 0.34 µM (≈ 0.148 µg/mL), respectively.

Regarding `CC1(COc2cccc(-c3ccc(F)cc3)n2)CCn2cc([N+](=O)[O-])nc2O1` (centres unmarked) [compound 101], the concentration for half-maximal inhibition (IC50) in experiment [4] was 350 nM; in experiment [5], more than 64000 nM; in experiment [6], 180 nM. The minimum inhibitory concentration (MIC) came out at 5 µM (≈ 1.92 µg/mL) in experiment [2] and 0.94 µM (≈ 0.361 µg/mL) in experiment [3] (setting [8]).

In the case of `CC1(COc2cccc(-c3ccc(F)cc3F)n2)CCn2cc([N+](=O)[O-])nc2O1` (centres unmarked) [compound 103], the IC50 in experiment [4] was 220 nM; in experiment [5] it was more than 64000 nM; in experiment [6], 240 nM. Moreover, the figures for the MIC in experiment [2] and in experiment [3] (setting [8]) were 4.8 µM (≈ 1.93 µg/mL) and 0.69 µM (≈ 0.278 µg/mL), respectively.

Consider `O=[N+]([O-])c1cn2c(n1)OC(COc1ccc(-c3ccc(F)nc3)cn1)CC2` (centres unmarked) [compound 107], for which the concentration for half-maximal inhibition (IC50) in experiment [1] is 270 nM. For the same compound, the values for the minimal inhibitory concentration (MIC) in experiment [2] and in experiment [3] (setting [7]) were 15 µM (≈ 5.57 µg/mL) and 0.074 µM (≈ 0.0275 µg/mL), respectively.

Compound `CC1(COc2ccc(-c3ccc(F)nc3)cn2)CCn2cc([N+](=O)[O-])nc2O1` (centres unmarked) [compound 108] registered a half-inhibitory concentration (IC50) in experiment [1] of 220 nM. Moreover, the minimal inhibitory concentration (MIC) in experiment [2] worked out at 6.2 µM (≈ 2.39 µg/mL); in experiment [3] (setting [7]) it was 1.9 µM (≈ 0.732 µg/mL).

On to `CC1(COc2ccc(-c3ccc(F)nc3F)cn2)CCn2cc([N+](=O)[O-])nc2O1` (centres unmarked) [compound 110], for which the figures for the IC50 in experiment [4], in experiment [5] and in experiment [6] were 430 nM, more than 64000 nM and 200 nM, respectively. In addition, the figures for the MIC in experiment [2] and in experiment [3] (setting [8]) were 6.6 µM (≈ 2.66 µg/mL) and 1 µM (≈ 0.403 µg/mL), respectively.

Consider `O=[N+]([O-])c1cn2c(n1)OC(COc1ccc(-c3ccc(C(F)(F)F)nc3)cn1)CC2` (centres unmarked) [compound 111], for which it took 130 nM to reach half-maximal inhibition in experiment [1] (IC50). Moreover, the minimal inhibitory concentration (MIC) in experiment [2] stood at 2.5 µM (≈ 1.05 µg/mL); in experiment [3] (setting [7]) it was 0.09 µM (≈ 0.0379 µg/mL).

In experiment [1], `O=[N+]([O-])c1cn2c(n1)OC(COc1ccc(-c3ccc(F)nc3)nc1)CC2` (centres unmarked) [compound 112] yielded an IC50 of 90 nM. In addition, the MIC came to 21 µM (≈ 7.8 µg/mL) in experiment [2] and 2.3 µM (≈ 0.854 µg/mL) in experiment [3] (setting [7]).

In turn, `CC1(COc2ccc(-c3ccc(F)nc3)nc2)CCn2cc([N+](=O)[O-])nc2O1` (centres unmarked) [compound 113] yielded an IC50 in experiment [1] of 90 nM. The minimum inhibitory concentration (MIC) in experiment [2] was 43 µM (≈ 16.6 µg/mL); in experiment [3] (setting [7]), 2.7 µM (≈ 1.04 µg/mL).

With `O=[N+]([O-])c1cn2c(n1)OC(COc1ccc(-c3ccc(C(F)(F)F)nc3)nc1)CC2` (centres unmarked) [compound 116], the IC50 in experiment [1] was 70 nM. Besides, the minimal inhibitory concentration (MIC) in experiment [2] turned out to be 58 µM (≈ 24.4 µg/mL); in experiment [3] (setting [7]), 0.12 µM (≈ 0.0506 µg/mL).

Consider `CC1(COc2cccc(-c3ccc(F)nc3)n2)CCn2cc([N+](=O)[O-])nc2O1` (centres unmarked) [compound 118], for which the IC50 is 520 nM in experiment [4], more than 64000 nM in experiment [5] and 1100 nM in experiment [6]. The figures for the MIC in experiment [2] and in experiment [3] (setting [8]) were 7.8 µM (≈ 3.01 µg/mL) and 11 µM (≈ 4.24 µg/mL), respectively.

As for `CC1(COc2cccc(-c3ccc(F)nc3F)n2)CCn2cc([N+](=O)[O-])nc2O1` (centres unmarked) [compound 120], the IC50 in experiment [4] was 490 nM; in experiment [5] it was more than 64000 nM; in experiment [6] it was 590 nM. The MIC in experiment [2] is 7.9 µM (≈ 3.19 µg/mL); in experiment [3] (setting [8]), 9.3 µM (≈ 3.75 µg/mL).

In experiment [1], `O=[N+]([O-])c1cn2c(n1)OC(CN1CCN(c3ccc(F)cc3)CC1)CC2` (centres unmarked) [compound 142, 7-{[4-(4-Fluorophenyl)piperazin-1-yl]methyl}-2-nitro-6,7-dihydro-5H-imidazo[2,1-b][1,3]oxazine] registered an IC50 of 190 nM. In addition, the MIC in experiment [2] came out at 9.9 µM (≈ 3.58 µg/mL); in experiment [3] (setting [7]), 1.8 µM (≈ 0.65 µg/mL).

The compound `O=[N+]([O-])c1cn2c(n1)OC(CN1CCC(Oc3ccc(F)cc3)CC1)CC2` (centres unmarked) [compound 152] showed an IC50 in experiment [1] of 450 nM. In addition, the minimum inhibitory concentration (MIC) in experiment [2] was found to be 22 µM (≈ 8.28 µg/mL); in experiment [3] (setting [7]), 2 µM (≈ 0.753 µg/mL).

Regarding `O=[N+]([O-])c1cn2c(n1)OC(COC1CCN(c3ccc(F)cc3)CC1)CC2` (centres unmarked) [compound 170], the minimal inhibitory concentration (MIC) was 20 µM (≈ 7.53 µg/mL) in experiment [2] and 0.78 µM (≈ 0.294 µg/mL) in experiment [3] (setting [7]).

With `CC1(COC2CCN(c3ccc(F)cc3)CC2)CCn2cc([N+](=O)[O-])nc2O1` (centres unmarked) [compound 178], the minimal inhibitory concentration (MIC) in experiment [2] is 19 µM (≈ 7.42 µg/mL); in experiment [3] (setting [7]), 0.37 µM (≈ 0.144 µg/mL).
